Laboratory results reported in patent publication US9944602B2, “Piperidinone herbicides” (E. I. DU PONT DE NEMOURS AND COMPANY, priority 2014, dated 2018).

How the values were obtained:
Assay type in all cases: in vivo
[1] = system: ducksalad (Heteranthera limosa); assay: Test B flooded paddy test ducksalad; details: Table B, Flood, 500 g ai/ha, scale 0 to 100
How it was run: (§1)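 Water-applied paddy treatment: compound dosed into 3 cm flood on 2-leaf plants, read visually versus controls after 13 to 15 d.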

[2] = system: pigweed (Amaranthus retroflexus); assay: Test A postemergence pigweed; details: 0 to 100 scale, 0 is no effect, 100 is complete control
How it was run: (§2)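 Scores are visual injury ratings on a 0–100 scale (100 = complete control) taken about 10 d after treatment, relative to untreated greenhouse controls. Preemergence: directed soil spray over planted seeds in loam/sand; postemergence: spray onto one- to two-leaf plants 2–10 cm high; surfactant-containing solvent formulation.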

rice (Oryza sativa) [3] = assay: Test C flooded paddy test rice; details: Table C, Flood, scale 0 to 100
How it was run: (§3)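 Compound was added directly to paddy water held 3 cm above the soil, with plants at the 2-leaf stage. Injury was scored visually versus untreated controls after 13–15 d greenhouse growth, using a 0–100 scale where 100 means complete control.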

[4] = system: ragweed (common ragweed, Ambrosia elatior); assay: Test A postemergence ragweed; details: 0 to 100 scale, 0 is no effect, 100 is complete control
How it was run: as §2

[5] = system: barnyardgrass (Echinochloa crus-galli); assay: Test B flooded paddy test barnyardgrass; details: Table B, Flood, 500 g ai/ha, scale 0 to 100
How it was run: as §1

[6] = system: pigweed (Amaranthus retroflexus); assay: Test A preemergence pigweed; details: 0 to 100 scale, 0 no effect, 100 complete control
How it was run: as §2

rice (Oryza sativa) [7] = assay: Test B flooded paddy test rice; details: Table B, Flood, 500 g ai/ha, scale 0 to 100
How it was run: as §1

[8] = system: galium (catchweed bedstraw, Galium aparine); assay: Test A postemergence galium; details: 0 to 100 scale, 0 is no effect, 100 is complete control
How it was run: as §2

[9] = system: ryegrass, Italian (Italian ryegrass, Lolium multiflorum); assay: Test A preemergence ryegrass, Italian; details: 0 to 100 scale, 0 no effect, 100 complete control
How it was run: as §2

[10] = system: wheat (Triticum aestivum); assay: Test A postemergence wheat; details: 0 to 100 scale, 0 is no effect, 100 is complete control
How it was run: as §2

[11] = system: foxtail, giant (giant foxtail, Setaria faberii); assay: Test A preemergence foxtail, giant; details: 0 to 100 scale, 0 no effect, 100 complete control
How it was run: as §2

[12] = system: ragweed (common ragweed, Ambrosia elatior); assay: Test A preemergence ragweed; details: 0 to 100 scale, 0 no effect, 100 complete control
How it was run: as §2

corn (Zea mays) = assay: Test A postemergence corn; details: 0 to 100 scale, 0 is no effect, 100 is complete control
How it was run: as §2

[13] = system: sedge, umbrella (small-flower umbrella sedge, Cyperus difformis); assay: Test C flooded paddy test sedge, umbrella; details: Table C, Flood, scale 0 to 100
How it was run: as §3

[14] = system: barnyardgrass (Echinochloa crus-galli); assay: Test A postemergence barnyardgrass; details: 0 to 100 scale, 0 is no effect, 100 is complete control
How it was run: as §2

kochia (Kochia scoparia) [15] = assay: Test A preemergence kochia; details: 0 to 100 scale, 0 no effect, 100 complete control
How it was run: as §2

[16] = system: foxtail, giant (giant foxtail, Setaria faberii); assay: Test A postemergence foxtail, giant; details: 0 to 100 scale, 0 is no effect, 100 is complete control
How it was run: as §2

[17] = system: barnyardgrass (Echinochloa crus-galli); assay: Test A preemergence barnyardgrass; details: 0 to 100 scale, 0 no effect, 100 complete control
How it was run: as §2

kochia (Kochia scoparia) [18] = assay: Test A postemergence kochia; details: 0 to 100 scale, 0 is no effect, 100 is complete control
How it was run: as §2

[19] = system: sedge, umbrella (small-flower umbrella sedge, Cyperus difformis); assay: Test B flooded paddy test sedge, umbrella; details: Table B, Flood, 500 g ai/ha, scale 0 to 100
How it was run: as §1

[20] = system: ryegrass, Italian (Italian ryegrass, Lolium multiflorum); assay: Test A postemergence ryegrass, Italian; details: 0 to 100 scale, 0 is no effect, 100 is complete control
How it was run: as §2

[21] = system: blackgrass (Alopecurus myosuroides); assay: Test A postemergence blackgrass; details: 0 to 100 scale, 0 is no effect, 100 is complete control
How it was run: as §2

[22] = system: ducksalad (Heteranthera limosa); assay: Test C flooded paddy test ducksalad; details: Table C, Flood, scale 0 to 100
How it was run: as §3

[23] = system: barnyardgrass (Echinochloa crus-galli); assay: Test C flooded paddy test barnyardgrass; details: Table C, Flood, scale 0 to 100
How it was run: as §3

Structure (SMILES): O=C1NCCC(c2cccc(C(F)(F)F)c2)C1C(=O)Nc1ccc(F)c(F)c1F (racemic) [Compound 28]
- Plant response rating [1]: 85
- Plant response rating, Pigweed ([2]; 125 g ai/ha): 0
- Plant response rating, Pigweed ([2]; 500 g ai/ha): 0
- Plant response rating (rice (Oryza sativa) [3]; 31 g ai/ha): 0
- Plant response rating (rice (Oryza sativa) [3]; 62 g ai/ha): 0
- Plant response rating (rice (Oryza sativa) [3]; 125 g ai/ha): 0
- Plant response rating (rice (Oryza sativa) [3]; 250 g ai/ha): 0
- Plant response rating, Ragweed ([4]; 125 g ai/ha): 0
- Plant response rating, Ragweed ([4]; 500 g ai/ha): 0
- Plant response rating [5]: 100
- Pigweed plant response rating ([6]; 125 g ai/ha): 0
- Pigweed plant response rating ([6]; 500 g ai/ha): 20
- Plant response rating (rice (Oryza sativa) [7]): 15
- Plant response rating, Galium ([8]; 125 g ai/ha): 0
- Plant response rating, Galium ([8]; 500 g ai/ha): 0
- Ryegrass, Italian plant response rating ([9]; 125 g ai/ha): 20
- Ryegrass, Italian plant response rating ([9]; 500 g ai/ha): 40
- Plant response rating, Wheat ([10]; 125 g ai/ha): 0
- Plant response rating, Wheat ([10]; 500 g ai/ha): 20
- Foxtail, Giant plant response rating ([11]; 125 g ai/ha): 90
- Foxtail, Giant plant response rating ([11]; 500 g ai/ha): 90
- Ragweed plant response rating ([12]; 125 g ai/ha): 0
- Ragweed plant response rating ([12]; 500 g ai/ha): 0
- Plant response rating, Corn (corn (Zea mays); 125 g ai/ha): 30
- Plant response rating, Corn (corn (Zea mays); 500 g ai/ha): 60
- Plant response rating ([13]; 31 g ai/ha): 0
- Plant response rating ([13]; 62 g ai/ha): 0
- Plant response rating ([13]; 125 g ai/ha): 0
- Plant response rating ([13]; 250 g ai/ha): 0
- Plant response rating, Barnyardgrass ([14]; 125 g ai/ha): 60
- Plant response rating, Barnyardgrass ([14]; 500 g ai/ha): 80
- Kochia plant response rating (kochia (Kochia scoparia) [15]; 125 g ai/ha): 20
- Kochia plant response rating (kochia (Kochia scoparia) [15]; 500 g ai/ha): 20
- Plant response rating, Foxtail, Giant ([16]; 125 g ai/ha): 70
- Plant response rating, Foxtail, Giant ([16]; 500 g ai/ha): 90
- Barnyardgrass plant response rating ([17]; 125 g ai/ha): 90
- Barnyardgrass plant response rating ([17]; 500 g ai/ha): 90
- Plant response rating, Kochia (kochia (Kochia scoparia) [18]; 125 g ai/ha): 0
- Plant response rating, Kochia (kochia (Kochia scoparia) [18]; 500 g ai/ha): 0
- Plant response rating [19]: 0
- Plant response rating, Ryegrass, Italian ([20]; 125 g ai/ha): 0
- Plant response rating, Ryegrass, Italian ([20]; 500 g ai/ha): 0
- Plant response rating, Blackgrass ([21]; 125 g ai/ha): 0
- Plant response rating, Blackgrass ([21]; 500 g ai/ha): 20
- Plant response rating ([22]; 31 g ai/ha): 45
- Plant response rating ([22]; 62 g ai/ha): 50
- Plant response rating ([22]; 125 g ai/ha): 60
- Plant response rating ([22]; 250 g ai/ha): 70
- Plant response rating ([23]; 31 g ai/ha): 60
- Plant response rating ([23]; 62 g ai/ha): 65
- Plant response rating ([23]; 125 g ai/ha): 70
- Plant response rating ([23]; 250 g ai/ha): 75
